The record followed here is PubChem BioAssay AID1259407 (Chemical Carcinogenesis Research Information System (CCRIS), 2018).

For the series, the system named is CCRIS mutagenicity, Ames/micronucleus/aberration tests. The series is described as follows: CCRIS mutagenicity studies.
Where [1] appears, read: Test System: AMES SALMONELLA TYPHIMURIUM, Strain/Indicator: TA98, Metabolic Activation: NONE, Method: PREINCUBATION
Setting [2] is: Test System: AMES SALMONELLA TYPHIMURIUM, Strain/Indicator: TA100, Metabolic Activation: NONE, Method: PREINCUBATION
Setting [3] is: Test System: AMES SALMONELLA TYPHIMURIUM, Strain/Indicator: TA1535, Metabolic Activation: NONE, Method: PREINCUBATION
Where [4] appears, read: Test System: AMES SALMONELLA TYPHIMURIUM, Strain/Indicator: TA1537, Metabolic Activation: NONE, Method: PREINCUBATION
Where [5] appears, read: Test System: AMES SALMONELLA TYPHIMURIUM, Strain/Indicator: TA100, Metabolic Activation: NONE, Method: STANDARD PLATE.

SMILES strings stand for the structures. Calls of active or inactive are those of the source. How the calls were made is not given here.

Take `N=C(N)S(=O)O`: the mutagenic call by setting is: under setting [1], “inactive; negative”; (Test System: AMES SALMONELLA TYPHIMURIUM, Strain/Indicator: TA98, Metabolic Activation: RAT LIVER S-9, PHENOBARBITAL AND BETA-NAPHTHOFLAVONE, Method: PREINCUBATION) “inactive; negative”; under setting [2], “inactive; negative”; (Test System: AMES SALMONELLA TYPHIMURIUM, Strain/Indicator: TA100, Metabolic Activation: RAT LIVER S-9, PHENOBARBITAL AND BETA-NAPHTHOFLAVONE, Method: PREINCUBATION) “inactive; negative”; under setting [3], “active; positive”; (Test System: AMES SALMONELLA TYPHIMURIUM, Strain/Indicator: TA1535, Metabolic Activation: RAT LIVER S-9, PHENOBARBITAL AND BETA-NAPHTHOFLAVONE, Method: PREINCUBATION) “active; positive”. The mutagenic call was “inactive; negative” under setting [4]; “inactive; negative” (Test System: AMES SALMONELLA TYPHIMURIUM, Strain/Indicator: TA1537, Metabolic Activation: RAT LIVER S-9, PHENOBARBITAL AND BETA-NAPHTHOFLAVONE, Method: PREINCUBATION); “inactive; negative” (Test System: E.COLI, Strain/Indicator: WP2UVRA\PKM101, Metabolic Activation: NONE, Method: PREINCUBATION); “inactive; negative” (Test System: E.COLI, Strain/Indicator: WP2UVRA\PKM101, Metabolic Activation: RAT LIVER S-9, PHENOBARBITAL AND BETA-NAPHTHOFLAVONE, Method: PREINCUBATION).
Consider `COc1c(O)c(Cl)c(Cl)c(Cl)c1Cl`, for which, for the setting “Test System: CHINESE HAMSTER V-79, Strain/Indicator: V-79/6-THIOGUANINE, Metabolic Activation: NONE, Method: STANDARD PLATE”, the mutagenic call is “inactive; negative”.
With `O=[N+]([O-])c1ccc2snc(Cl)c2c1`, the mutagenic call under setting [5] is “active; positive”.
As to `C=C(C#N)C(=O)OC`, the mutagenic call (Test System: AMES SALMONELLA TYPHIMURIUM, Strain/Indicator: TA98, Metabolic Activation: HAMSTER, LIVER, S-9, AROCLOR 1254 (10%), Method: PREINCUBATION) is “inactive; negative”; the mutagenic call under setting [1] is “inactive; negative”; the mutagenic call (Test System: AMES SALMONELLA TYPHIMURIUM, Strain/Indicator: TA98, Metabolic Activation: RAT, LIVER, S-9, AROCLOR 1254 (10%), Method: PREINCUBATION) is “inactive; negative”; the mutagenic call (Test System: AMES SALMONELLA TYPHIMURIUM, Strain/Indicator: TA100, Metabolic Activation: HAMSTER, LIVER, S-9, AROCLOR 1254 (10%), Method: PREINCUBATION) was “active; positive”; the mutagenic call under setting [2] is “active; positive”; the mutagenic call (Test System: AMES SALMONELLA TYPHIMURIUM, Strain/Indicator: TA100, Metabolic Activation: NONE, Method: SPOT TEST) is “active; positive”. Further, the mutagenic call is, setting by setting: under setting [5], “active; positive”; (Test System: AMES SALMONELLA TYPHIMURIUM, Strain/Indicator: TA100, Metabolic Activation: RAT, LIVER, S-9, AROCLOR 1254 (10%), Method: PREINCUBATION) “active; positive”; (Test System: AMES SALMONELLA TYPHIMURIUM, Strain/Indicator: TA100, Metabolic Activation: RAT, LIVER, S-9, AROCLOR 1254, Method: SPOT TEST) “active; positive”; (Test System: AMES SALMONELLA TYPHIMURIUM, Strain/Indicator: TA100, Metabolic Activation: RAT, LIVER, S-9, AROCLOR 1254, Method: STANDARD PLATE) “active; positive”; (Test System: AMES SALMONELLA TYPHIMURIUM, Strain/Indicator: TA1535, Metabolic Activation: HAMSTER, LIVER, S-9, AROCLOR 1254 (10%), Method: PREINCUBATION) “inactive; negative”; under setting [3], “inactive; negative”. Moreover, the mutagenic call was “inactive; negative” (Test System: AMES SALMONELLA TYPHIMURIUM, Strain/Indicator: TA1535, Metabolic Activation: RAT, LIVER, S-9, AROCLOR 1254 (10%), Method: PREINCUBATION); “inactive; negative” (Test System: AMES SALMONELLA TYPHIMURIUM, Strain/Indicator: TA1537, Metabolic Activation: HAMSTER, LIVER, S-9, AROCLOR 1254 (10%), Method: PREINCUBATION); “inactive; negative” under setting [4]; “inactive; negative” (Test System: AMES SALMONELLA TYPHIMURIUM, Strain/Indicator: TA1537, Metabolic Activation: RAT, LIVER, S-9, AROCLOR 1254 (10%), Method: PREINCUBATION).
